Reference: patent US7223759B2, “Antibacterial 3,5-diaminopiperidine-substituted aromatic and heteroaromatic compounds” (Anadys Pharmaceuticals, Inc., priority 2003, dated 2007)

Each molecule was assayed on Escherichia coli (ATCC25922) or Staphylococcus aureus (ATCC25923) (assay: Antibacterial MIC, microdilution method in Mueller-Hinton medium). Conditions: Escherichia coli, 18 h, MIC in E. coli or S. aureus; two-fold serial dilutions 64 to 0.5 μg/ml in duplicate; 18 hours of incubation at 35° C.; read-out: Potency (MIC).
Assay type: cell-based
Procedure, shortened: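 Two-fold serial dilutions from 64 to 0.5 μg/ml, in duplicate, by broth microdilution in Mueller-Hinton medium (NCCLS M7-A5). MIC taken as the lowest concentration preventing visible growth after 18 h at 35° C.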

| Compound | MIC [µg/mL] |
| --- | --- |
| COc1ccc(Nc2ccc(NC(=O)CC(=O)c3ccc(Nc4nc(N5CCCCC5)nc(N5CCCCC5)n4)cc3)cc2)cc1 [N-{4-[2-(4-methoxy-phenylcarbamoyl)-acetyl]-phenyl}-44,6-Bis-((3R,5S)-3,5-diamino-piperidin-1-yl)-[1,3,5]triazine-2-amine] | < 16 |
| Cl.NS(=O)(=O)c1ccc(NC(=O)CC(=O)c2ccc(Nc3nc(N4CCCCC4)nc(N4CCCCC4)n3)cc2)cc1 [N-{4-[2-(4-sulfamoyl-phenylcarbamoyl)-acetyl]-phenyl}-44,6-Bis-((3R,5S)-3,5-diamino-piperidin-1-yl)-[1,3,5]triazine-2-amine] | < 64 |
| Cl.O=C(CC(=O)c1ccc(Nc2nc(N3CCCCC3)nc(N3CCCCC3)n2)cc1)Nc1ccc(-c2ccccc2)cc1 [N-{4-[2-(biphenyl-44-ylcarbamoyl)-acetyl]-phenyl}-44,6-Bis-((3R,5S)-3,5-diamino-piperidin-1-yl)-[1,3,5]triazine-2-amine] | < 16 |
| COC(=O)CC(=O)Nc1ccc(Nc2nc(N3C[C@H](N)C[C@H](N)C3)nc(N3C[C@H](N)C[C@H](N)C3)n2)cc1O [N-{4-[4,6-Bis-((3R,5S)-3,5-diamino-piperidin-1-yl)-[1,3,5]triazin-2-ylamino]-2-hydroxy-phenyl}-malonamic acid methylester] | > 64 |
| N[C@@H]1C[C@H](N)CN(c2nc(Nc3ccc(NC(=O)c4ccc(N5Cc6ccccc6C5)cc4O)cc3)nc(N3C[C@H](N)C[C@H](N)C3)n2)C1 [N-{4-[4-(1,3-dihydro-isoindol-2-yl)-2-hydroxy-benzoylamino]-phenyl}-4,6-Bis-((3R,5S)-3,5-diamino-piperidin-1-yl)-[1,3,5]triazine-2-amine] | < 16 |
| CC(C)(C)C(=O)Nc1ccc(S(=O)(=O)Nc2ccc(Nc3nc(N4C[C@H](N)C[C@H](N)C4)nc(N4C[C@H](N)C[C@H](N)C4)n3)cc2O)cc1.Cl [N-{4-[4-(2,2-dimethyl-propionylamino)-benzenesulfonylamino]-3-hydroxy-phenyl}-4,6-Bis-((3R,5S)-3,5-diamino-piperidin-1-yl)-[1,3,5]triazine-2-amine] | > 64 |
| CC1=NN(c2ccc(Nc3nc(N4C[C@H](N)C[C@H](N)C4)nc(N4C[C@H](N)C[C@H](N)C4)n3)cc2)C(=O)C1CCO (stereo partly drawn) [N-{4-[4-(2-hydroxy-ethyl)-3-methyl-5-oxo-4,5-dihydro-pyrazol-1-yl]-phenyl}-4,6-Bis-((3R,5S)-3,5-diamino-piperidin-1-yl)-[1,3,5]triazine-2-amine] | > 64 |
| Cc1ccc(C(=O)Nc2ccc(Nc3nc(N4CC(N)C4)nc(N4C[C@H](N)C[C@H](N)C4)n3)cc2O)cc1.Cl [N-{4-[4-(3-Amino-azetidin-1-yl)-6-((3R,5S)-3,5-diamino-piperidin-1-yl)-[1,3,5]triazin-2-ylamino]-2-hydroxy-phenyl}-4-methyl-benzamide] | < 64 |

Same assay, conditions: Escherichia coli, 18 h, read-out: Potency (MIC)

| Compound | MIC [µg/mL] |
| --- | --- |
| COc1cc(NC(=O)CC(=O)c2ccc(Nc3nc(N4C[C@H](N)C[C@H](N)C4)nc(N4C[C@H](N)C[C@H](N)C4)n3)cc2)c(OC)cc1Cl [N-{4-[2-(4-chloro-2,5-dimethoxy-phenylcarbamoyl)-acetyl]-phenyl}-4,6-Bis-((3R,5S)-3,5-diamino-piperidin-1-yl)-[1,3,5]triazine-2-amine] | < 16 |
| N[C@@H]1C[C@H](N)CN(c2nc(Nc3ccc(C(=O)CC(=O)Nc4ccc(Cl)cc4F)cc3)nc(N3C[C@H](N)C[C@H](N)C3)n2)C1 [N-{4-[2-(4-chloro-2-fluoro-phenylcarbamoyl)-acetyl]-phenyl}-4,6-Bis-((3R,5S)-3,5-diamino-piperidin-1-yl)-[1,3,5]triazine-2-amine] | < 16 |
| N[C@@H]1C[C@H](N)CN(c2nc(Nc3ccc(C(=O)CC(=O)Nc4ccc(Cl)cc4)cc3)nc(N3C[C@H](N)C[C@H](N)C3)n2)C1 [N-{4-[2-(4-chloro-phenylcarbamoyl)-acetyl]-phenyl}-4,6-Bis-((3R,5S)-3,5-diamino-piperidin-1-yl)-[1,3,5]triazine-2-amine] | < 16 |
| N[C@@H]1C[C@H](N)CN(c2nc(Nc3ccc(C(=O)CC(=O)Nc4ccc(F)cc4)cc3)nc(N3C[C@H](N)C[C@H](N)C3)n2)C1 [N-{4-[2-(4-fluoro-phenylcarbamoyl)-acetyl]-phenyl}-4,6-Bis-((3R,5S)-3,5-diamino-piperidin-1-yl)-[1,3,5]triazine-2-amine] | < 16 |
| N[C@@H]1C[C@H](N)CN(c2nc(Nc3ccc(C(=O)CC(=O)Nc4ccc(SC(F)(F)F)cc4)cc3)nc(N3C[C@H](N)C[C@H](N)C3)n2)C1 [N-{4-[2-(4-trifluoromethylsulfanyl-phenylcarbamoyl)-acetyl]-phenyl}-4,6-Bis-((3R,5S)-3,5-diamino-piperidin-1-yl)-[1,3,5]triazine-2-amine] | < 16 |
| N[C@@H]1C[C@H](N)CN(c2nc(Nc3ccc(NC(=O)c4ccc(N5Cc6ccccc6C5)cc4O)c(O)c3)nc(N3C[C@H](N)C[C@H](N)C3)n2)C1 [N-{4-[4-(1,3-dihydro-isoindol-2-yl)-2-hydroxy-benzoylamino]-3-hydroxy-phenyl}-4,6-Bis-((3R,5S)-3,5-diamino-piperidin-1-yl)-[1,3,5]triazine-2-amine] | < 64 |
| CCCCCC(CC)C(=O)Nc1ccc(S(=O)(=O)Nc2ccc(Nc3nc(N4C[C@H](N)C[C@H](N)C4)nc(N4C[C@H](N)C[C@H](N)C4)n3)cc2O)cc1 (stereo partly drawn) [N-{4-[4-(2-ethyl-heptanoylamino)-benzenesulfonylamino]-3-hydroxy-phenyl}-4,6-Bis-((3R,5S)-3,5-diamino-piperidin-1-yl)-[1,3,5]triazine-2-amine] | < 16 |
| NC1CN(c2nc(Nc3ccc(NC(=O)c4ccc(Cl)cc4)c(O)c3)nc(N3C[C@H](N)C[C@H](N)C3)n2)C1 [N-{4-[4-(3-Amino-azetidin-1-yl)-6-((3R,5S)-3,5-diamino-piperidin-1-yl)-[1,3,5]triazin-2-ylamino]-2-hydroxy-phenyl}-4-chloro-benzamide] | < 16 |
| NC[C@H]1[C@@H](O)CCN1c1nc(Nc2ccc(NC(=O)c3ccc(Cl)cc3)c(O)c2)nc(N2C[C@H](N)C[C@H](N)C2)n1 [N-{4-[4-((2S,3S)-2-Aminomethyl-3-hydroxy-pyrrolidin-1-yl)-6-((3R,5S)-3,5-diamino-piperidin-1-yl)-[1,3,5]triazin-2-ylamino]-2-hydroxy-phenyl}-4-chloro-benzamide] | < 64 |
| Cc1ccc(C(=O)Nc2ccc(Nc3nc(N4C[C@H](N)C[C@H](N)C4)nc(N4CC[C@H](O)[C@@H]4CN)n3)cc2O)cc1 [N-{4-[4-((2S,3S)-2-Aminomethyl-3-hydroxy-pyrrolidin-1-yl)-6-((3R,5S)-3,5-diamino-piperidin-1-yl)-[1,3,5]triazin-2-ylamino]-2-hydroxy-phenyl}-4-methyl-benzamide] | < 16 |
| Cc1ccc(S(=O)(=O)N(Cc2ccccc2)c2ccc(Nc3nc(N4C[C@H](N)C[C@H](N)C4)nc(N4C[C@H](O)C[C@H]4CN)n3)cc2O)cc1 [N-{4-[4-((2S,4R)-2-Aminomethyl-4-hydroxy-pyrrolidin-1-yl)-6-((3R,5S)-3,5-diamino-piperidin-1-yl)-[1,3,5]triazin-2-ylamino]-2-hydroxy-phenyl}-N-benzyl-4-methyl-benzenesulfonamide] | < 64 |
| NC[C@@H]1C[C@H](N)CN1c1nc(Nc2ccc(NC(=O)c3ccc(O)cc3O)c(O)c2)nc(N2C[C@H](N)C[C@H](N)C2)n1 [N-{4-[4-((2S,4S)-4-Amino-2-aminomethyl-pyrrolidin-1-yl)-6-((3R,5S)-3,5-diamino-piperidin-1-yl)-[1,3,5]triazin-2-ylamino]-2-hydroxy-phenyl}-2,4-dihydroxy-benzamide] | < 16 |
| NC[C@@H]1C[C@H](N)CN1c1nc(Nc2ccc(NC(=O)c3ccc(Cl)cc3O)c(O)c2)nc(N2C[C@H](N)C[C@H](N)C2)n1 [N-{4-[4-((2S,4S)-4-Amino-2-aminomethyl-pyrrolidin-1-yl)-6-((3R,5S)-3,5-diamino-piperidin-1-yl)-[1,3,5]triazin-2-ylamino]-2-hydroxy-phenyl}-4-chloro-2-hydroxy-benzamide] | < 16 |
| NC[C@@H]1C[C@H](N)CN1c1nc(Nc2ccc(NC(=O)c3ccc(Cl)cc3)c(O)c2)nc(N2C[C@H](N)C[C@H](N)C2)n1 [N-{4-[4-((2S,4S)-4-Amino-2-aminomethyl-pyrrolidin-1-yl)-6-((3R,5S)-3,5-diamino-piperidin-1-yl)-[1,3,5]triazin-2-ylamino]-2-hydroxy-phenyl}-4-chloro-benzamide] | < 16 |
| Cc1ccc(C(=O)Nc2ccc(Nc3nc(N4C[C@H](N)C[C@H](N)C4)nc(N4C[C@@H](N)C[C@H]4CN)n3)cc2O)cc1 [N-{4-[4-((2S,4S)-4-Amino-2-aminomethyl-pyrrolidin-1-yl)-6-((3R,5S)-3,5-diamino-piperidin-1-yl)-[1,3,5]triazin-2-ylamino]-2-hydroxy-phenyl}-4-methyl-benzamide] | < 64 |
| Cc1ccc(S(=O)(=O)N(Cc2ccccc2)c2ccc(Nc3nc(N4C[C@H](N)C[C@H](N)C4)nc(N4C[C@@H](N)C[C@H]4CN)n3)cc2O)cc1 [N-{4-[4-((2S,4S)-4-Amino-2-aminomethyl-pyrrolidin-1-yl)-6-((3R,5S)-3,5-diamino-piperidin-1-yl)-[1,3,5]triazin-2-ylamino]-2-hydroxy-phenyl}-N-benzyl-4-methyl-benzenesulfonamide] | < 64 |
| N[C@@H]1C[C@H](N)CN(c2nc(Nc3ccc(NC(=O)c4ccc(Cl)cc4)c(O)c3)nc(N3C[C@@H](N)C[C@H]3CO)n2)C1 [N-{4-[4-((2S,4S)-4-Amino-2-hydroxymethyl-pyrrolidin-1-yl)-6-((3R,5S)-3,5-diamino-piperidin-1-yl)-[1,3,5]triazin-2-ylamino]-2-hydroxy-phenyl}-4-chloro-benzamide] | < 64 |
| Cc1ccc(S(=O)(=O)N(Cc2ccccc2)c2ccc(Nc3nc(N4C[C@H](N)C[C@H](N)C4)nc(N4C[C@@H](N)C[C@H]4CO)n3)cc2O)cc1 [N-{4-[4-((2S,4S)-4-Amino-2-hydroxymethyl-pyrrolidin-1-yl)-6-((3R,5S)-3,5-diamino-piperidin-1-yl)-[1,3,5]triazin-2-ylamino]-2-hydroxy-phenyl}-N-benzyl-4-methyl-benzenesulfonamide] | < 64 |
